Data as given in US20210147343A1 (priority 2018, published 2021).
Like-named read-outs stand apart in the source and are kept apart here.

Columns and labels:
[1] = target: T1, kappa opioid receptor (KOR) (Homo sapiens, UniProt P41145); assay: cell-based; details: after activation with dynorphin B
T1 construct: host or cells: CHO-K1
Description: KOR cAMP Antagonist Assay

mu opioid receptor (MOR) = mu opioid receptor (MOR) (Homo sapiens, UniProt P35372); assay: MOR cAMP agonist assay
[2] = CHO-K1 cells expressing kOR, read-out: kOR cAMP IC50
[3] = kOR cAMP IC50, CHO-K1 cells expressing kOR

mu opioid receptor (MOR), sequence (P35372 whole entry): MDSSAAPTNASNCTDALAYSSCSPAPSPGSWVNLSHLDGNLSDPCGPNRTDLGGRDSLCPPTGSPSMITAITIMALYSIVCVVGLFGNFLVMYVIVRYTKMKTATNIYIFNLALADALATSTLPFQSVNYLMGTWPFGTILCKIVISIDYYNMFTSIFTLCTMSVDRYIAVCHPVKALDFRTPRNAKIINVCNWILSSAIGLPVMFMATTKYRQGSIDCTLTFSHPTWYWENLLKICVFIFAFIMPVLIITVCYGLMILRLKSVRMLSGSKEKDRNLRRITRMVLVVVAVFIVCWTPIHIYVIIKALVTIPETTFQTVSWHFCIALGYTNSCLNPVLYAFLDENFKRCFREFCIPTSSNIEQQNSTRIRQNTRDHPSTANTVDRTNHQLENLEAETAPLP
T1 sequence (P41145 whole entry): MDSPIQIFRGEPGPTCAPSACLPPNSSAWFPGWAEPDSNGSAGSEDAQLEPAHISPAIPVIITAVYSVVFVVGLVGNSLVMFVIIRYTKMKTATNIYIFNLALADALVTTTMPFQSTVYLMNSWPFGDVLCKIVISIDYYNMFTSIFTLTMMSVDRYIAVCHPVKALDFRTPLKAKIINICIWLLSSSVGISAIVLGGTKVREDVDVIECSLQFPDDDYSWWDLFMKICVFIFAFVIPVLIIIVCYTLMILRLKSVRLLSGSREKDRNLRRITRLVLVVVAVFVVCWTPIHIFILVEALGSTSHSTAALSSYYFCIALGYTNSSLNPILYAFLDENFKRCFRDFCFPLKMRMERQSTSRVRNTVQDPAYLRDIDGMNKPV

Cc1cc(C(N)=O)cc(C)c1C[C@@H](CNC(=O)C[C@H](C)c1ccccc1)N(C)C [Compound A-8, 4-((S)-2-(dimethylamino)-3-((S)-3-phenylbutanamido)propyl)-3,5-dimethylbenzamide]
IC50 [1, 2]: > 1000 nM | EC50 (mu opioid receptor (MOR)): > 1000 nM

Cc1cc(C(N)=O)cc(C)c1C[C@@H](CNC(=O)O[C@@H](C)c1ccccc1)N(C)C [Compound A-7, (S)-1-phenylethyl ((S)-3-(4-carbamoyl-2,6-dimethylphenyl)-2-(dimethylamino)propyl)carbamate]
IC50 [1, 3]: 100 to 1000 nM | EC50 (mu opioid receptor (MOR)): > 1000 nM

C[C@H](NC(=O)NC[C@H](Cc1ccc(C(N)=O)cc1)N(C)C)c1ccccc1 [Compound A-1, 4-((S)-2-(dimethylamino)-3-(3-((S)-1-phenylethyl)ureido)propyl) benzamide]
IC50 [1, 3]: 100 to 1000 nM | EC50 (mu opioid receptor (MOR)): > 1000 nM

CN(C)[C@H](CNC(=O)[C@@H]1C[C@@]1(C)c1ccccc1)Cc1ccc(C(N)=O)cc1Cl [Compound B-6, 3-chloro-4-((S)-2-(dimethylamino)-3-((1R,2R)-2-methyl-2-phenylcyclopropane-1-carboxamido)propyl)benzamide]
IC50 [1, 3]: 100 to 1000 nM | EC50 (mu opioid receptor (MOR)): < 100 nM

CN(C)[C@H](CNC(=O)[C@@H]1CCCN1c1ccccc1)Cc1ccc(C(N)=O)cc1 [Compound B-10, (S)—N—((S)-3-(4-carbamoylphenyl)-2-(dimethylamino)propyl)-1-phenylpyrrolidine-2-carboxamide]
IC50 [1, 3]: 100 to 1000 nM | EC50 (mu opioid receptor (MOR)): 100 to 1000 nM

CN(C)[C@H](CNC(=O)[C@@H]1C[C@@]1(C)c1ccccc1)Cc1ccc(O)cc1Cl [Compound B-1, (1R,2R)—N—((S)-3-(2-chloro-4-hydroxyphenyl)-2-(dimethylamino)propyl)-2-methyl-2-phenylcyclopropane-1-carboxamide]
IC50 [1, 3]: < 100 nM | EC50 (mu opioid receptor (MOR)): < 100 nM

Cc1cc(C(N)=O)cc(C)c1C[C@@H](CNC(=O)C[C@@H](C)c1ccccc1)N(C)C [Compound A-11, 4-((S)-2-(dimethylamino)-3-((R)-3-phenylbutanamido)propyl)-3,5-dimethylbenzamide]
IC50 [1, 3]: 100 to 1000 nM | EC50 (mu opioid receptor (MOR)): > 1000 nM

CN(C)[C@H](CNC(=O)C1CC1(C)c1ccccc1)Cc1ccc(C(N)=O)cc1 (stereo partly drawn) [Compound B-61, 4-((2S)-2-(dimethylamino)-3-(2-methyl-2-phenylcyclopropane-1-carboxamido)propyl)benzamide]
IC50 [1, 3]: > 1000 nM | EC50 (mu opioid receptor (MOR)): < 100 nM

CN(C)[C@H](CNC(=O)[C@@H]1C[C@]1(C)c1ccccc1)Cc1cc2cn[nH]c2cc1Cl [Compound B-54, (1R,2S)—N—((S)-3-(6-chloro-2H-indazol-5-yl)-2-(dimethylamino)propyl)-2-methyl-2-phenylcyclopropane-1-carboxamide]
IC50 [1, 3]: 100 to 1000 nM | EC50 (mu opioid receptor (MOR)): < 100 nM

CN(C)[C@H](CNC(=O)[C@@H]1C[C@]1(C)c1ccccc1)Cc1ccc2[nH]c(=O)oc2c1 [Compound B-49, (1R,2S)—N—((S)-2-(dimethylamino)-3-(2-oxo-2,3-dihydrobenzo[d]oxazol-6-yl)propyl)-2-methyl-2-phenylcyclopropane-1-carboxamide]
IC50 [1, 3]: > 1000 nM | EC50 (mu opioid receptor (MOR)): < 100 nM

CN(C)[C@H](CNC(=O)[C@@H]1C[C@@]1(C)c1ccccc1)Cc1ccc2[nH]ncc2c1 [Compound B-20, (1R,2R)—N—((S)-2-(dimethylamino)-3-(1H-indazol-5-yl)propyl)-2-methyl-2-phenylcyclopropane-1-carboxamide]
IC50 [1, 3]: > 1000 nM | EC50 (mu opioid receptor (MOR)): < 100 nM

Cc1cc(C(N)=O)cc(C)c1C[C@H](N)CNC(=O)O[C@@H](C)c1ccccc1 [Compound A-5, (S)-1-phenylethyl ((S)-2-amino-3-(4-carbamoyl-2,6-dimethylphenyl)propyl)carbamate]
IC50 [1, 3]: < 100 nM | EC50 (mu opioid receptor (MOR)): 100 to 1000 nM

CN(C)[C@H](CNC(=O)[C@@H]1C[C@]1(C)c1ccccc1)Cc1ccc(C(N)=O)cc1 [Compound B-5, 4-((S)-2-(dimethylamino)-3-((1R,2S)-2-methyl-2-phenylcyclopropane-1-carboxamido)propyl)benzamide]
IC50 [1, 3]: < 100 nM | EC50 (mu opioid receptor (MOR)): < 100 nM

Cc1cc(C(N)=O)cc(C)c1C[C@@H](CNC(=O)N[C@H](c1ccccc1)C1CC1)N(C)C [Compound A-9, 4-((S)-3-(3-((S)-cyclopropyl(phenyl)methyl)ureido)-2-(dimethylamino)propyl)-3,5-dimethylbenzamide]
IC50 [1, 2]: > 1000 nM | EC50 (mu opioid receptor (MOR)): > 1000 nM

Cc1cc(C(N)=O)cc(C)c1C[C@@H](CNC(=O)[C@@H]1C[C@@]1(C)c1ccccc1)N(C)C [Compound B-8, 4-((S)-2-(dimethylamino)-3-((1R,2R)-2-methyl-2-phenylcyclopropane-1-carboxamido)propyl)-3,5-dimethylbenzamide]
IC50 [1, 3]: 100 to 1000 nM | EC50 (mu opioid receptor (MOR)): < 100 nM

Cc1cc(C(N)=O)cc(C)c1C[C@H](N)CNC(=O)N[C@H](c1ccccc1)C1CC1 [Compound A-6, 4-((S)-2-amino-3-(3-((S)-cyclopropyl(phenyl)methyl)ureido)propyl)-3,5-dimethylbenzamide]
IC50 [1, 3]: 100 to 1000 nM | EC50 (mu opioid receptor (MOR)): 100 to 1000 nM

CN(C)[C@H](CNC(=O)[C@@H]1C[C@@]1(C)c1ccccc1)Cc1c(F)cc(O)cc1F [Compound B-14, (1R,2R)—N—((S)-3-(2,6-difluoro-4-hydroxyphenyl)-2-(dimethylamino)propyl)-2-methyl-2-phenylcyclopropane-1-carboxamide]
IC50 [1, 3]: > 1000 nM | EC50 (mu opioid receptor (MOR)): < 100 nM

CN(C)[C@H](CNC(=O)[C@H]1C[C@@]1(C)c1ccccc1)Cc1ccc(O)cc1 [Compound B-58, (1S,2R)—N—((S)-2-(dimethylamino)-3-(4-hydroxyphenyl)propyl)-2-methyl-2-phenylcyclopropane-1-carboxamide]
IC50 ([1]; read-out: kOR cAMP IC50, CHO-K1 cells expressing kOR): > 1000 nM | EC50 (mu opioid receptor (MOR); read-out: mOR cAMP EC50, CHO-K1 cells stably expressing mOR, cAMP levels): 100 to 1000 nM

C[C@]1(c2ccccc2)C[C@H]1C(=O)NC[C@H](Cc1ccc2[nH]ncc2c1)N1CCOCC1 [Compound B-43, (1R,2S)—N—((S)-3-(2H-indazol-5-yl)-2-morpholinopropyl)-2-methyl-2-phenylcyclopropane-1-carboxamide]
IC50 [1, 2]: > 1000 nM | EC50 (mu opioid receptor (MOR)): > 1000 nM

CN(C)[C@H](CNC(=O)[C@H]1C[C@@]1(C)c1ccccc1)Cc1ccc(C(N)=O)cc1 [Compound B-4, 4-((S)-2-(dimethylamino)-3-((1S,2R)-2-methyl-2-phenylcyclopropane-1-carboxamido)propyl)benzamide]
IC50 [1, 3]: 100 to 1000 nM | EC50 (mu opioid receptor (MOR)): < 100 nM

CN(C)[C@H](CNC(=O)[C@@H]1C[C@]1(C)c1ccccc1)Cc1ccc2[nH]ncc2c1 [Compound B-19, (1R,2S)—N—((S)-2-(dimethylamino)-3-(1H-indazol-5-yl)propyl)-2-methyl-2-phenylcyclopropane-1-carboxamide]
IC50 [1, 3]: > 1000 nM | EC50 (mu opioid receptor (MOR)): < 100 nM

CN(C)[C@H](CNC(=O)[C@@H]1C[C@@]1(C)c1ccccc1)Cc1ccc(O)cc1 [Compound B-62, (1R,2R)—N—((S)-2-(dimethylamino)-3-(4-hydroxyphenyl)propyl)-2-methyl-2-phenylcyclopropane-1-carboxamide]
IC50 [1, 3]: 100 to 1000 nM | EC50 (mu opioid receptor (MOR)): < 100 nM

CN(C)[C@H](CNC(=O)[C@@H]1C[C@@]1(C)c1ccccc1)Cc1ccc(C(N)=O)cc1 [Compound B-3, 4-((S)-2-(dimethylamino)-3-((1R,2R)-2-methyl-2-phenylcyclopropane-1-carboxamido)propyl)benzamide]
IC50 [1, 3]: > 1000 nM | EC50 (mu opioid receptor (MOR)): < 100 nM
